Laboratory results from US9422248B2 (University of Iowa Research Foundation, priority 2012, dated 2016).
Like-named read-outs stand apart in the source and are kept apart here.

What was measured:
6 Hz (32 mA) model = experiment: 6 Hz (32 mA) psychomotor seizure model of partial epilepsy; format: in vivo, mouse; conditions: for complete protection, animals: 6 Hz, 100 mg/kg, one or more time points from 0.25 or 1 h; for ED50: ip; for antiseizure activity in the 6 Hz model: mouse, in vivo
Excerpt: (§1) All compounds (FIG. 1) were screened in three whole mouse models: the maximal electroshock model (MES), the scMET test (pentylenetetrazole, Metrazol), and the 6 Hz psychomotor seizure model of partial epilepsy (32 mA). Adult male CF No 1 albino mice (26-30 g) were used for the 6 Hz test and 18-25 g mice were used in the MES and scMet tests. The animals are housed, fed, and handled in a manner consistent with the recommendations in the National Council Publication, “Guide for the Care and Use of Laboratory Animals”. The animal studies were performed by the NINDS Anticonvulsant Screening Program under IACUC number 09-12014. All compounds were administered ip in polyethylene glycol, 30%.
The 6 Hz test (also known as the minimal clonic seizure, or psychomotor test) involved delivering a corneal stimulus of 32 mA for 3 s. This current elicits psychomotor seizures in 97% of untreated animals. Seizures consist of a minimal clonic phase followed by stereotyped automatistic behaviors. Animals not showing such behaviors were considered protected. Toxicity was determined by the rotorod test. For this test, the animal is placed on a rotorod at 6 rpm following dosing. The animal is considered toxic if it falls off the rotorod three times in a 1 min period. The ED50, TD50 and confidence intervals were determined by probit analysis.

[1] = test system: scMET model (pentylenetetrazole, Metrazol); experiment: scMET test (subcutaneous Metrazol); format: in vivo, mouse; conditions: for responders at 30 mg/kg / responders at 100 mg/kg / responders at 300 mg/kg: Mus musculus, scMET, read-out: number of animals protected/number of animals tested; for responders at 30 mg/kg: 30 mg/kg ip; for responders at 100 mg/kg: 100 mg/kg ip; for responders at 300 mg/kg: 300 mg/kg ip; for scMET protection, time points after dosing: 300 mg/kg dose
Excerpt: as §1
(§2) The MES model, which generates generalized tonic-clonic seizures, involved pretreating mice with experimental compound, and administering 60 Hz of alternating current (50 mA) for 2 s via corneal electrodes. Prior to current administration, the animal's corneas were treated topically with 1% tetracaine. Animals are considered protected if the hindlimb tonic extensor component is absent. The scMET test was done by pretreating mice with experimental compound and administering 85 mg/kg Metrazol into the loose folds of the skin in the midline of the neck. Eighty-five mg/kg Metrazol is the dose that causes seizures in 97% (CD97) of control animals.

[2] = test system: maximal electroshock (MES) model; experiment: maximal electroshock (MES) model; format: in vivo, mouse; conditions: for MES protection / MES protection, time points after dosing: 300 mg/kg dose; for responders at 30 mg/kg / responders at 100 mg/kg / responders at 300 mg/kg: Mus musculus, MES; for responders at 30 mg/kg: 30 mg/kg ip; for responders at 30 mg/kg / responders at 300 mg/kg: read-out: number of animals protected/number of animals tested; for responders at 100 mg/kg: 100 mg/kg ip, read-out: number of animals protected/number of animals tested (converted); for responders at 300 mg/kg: 300 mg/kg ip
Excerpt: as §1, §2

rotorod test = experiment: Toxicity by the rotorod test; format: in vivo; conditions: for TD50: rotorod, ip, probit analysis
Excerpt: All compounds (FIG. 1) were screened in three whole mouse models: the maximal electroshock model (MES), the scMET test (pentylenetetrazole, Metrazol), and the 6 Hz psychomotor seizure model of partial epilepsy (32 mA). Adult male CF No 1 albino mice (26-30 g) were used for the 6 Hz test and 18-25 g mice were used in the MES and scMet tests. The animals are housed, fed, and handled in a manner consistent with the recommendations in the National Council Publication, “Guide for the Care and Use of Laboratory Animals”. […] All compounds were administered ip in polyethylene glycol, 30%.
The 6 Hz test (also known as the minimal clonic seizure, or psychomotor test) involved delivering a corneal stimulus of 32 mA for 3 s. […] Seizures consist of a minimal clonic phase followed by stereotyped automatistic behaviors. Animals not showing such behaviors were considered protected. Toxicity was determined by the rotorod test. For this test, the animal is placed on a rotorod at 6 rpm following dosing. The animal is considered toxic if it falls off the rotorod three times in a 1 min period. The ED50, TD50 and confidence intervals were determined by probit analysis.

Row | SMILES | complete protection, animals (6 Hz (32 mA) model) | responders at 30 mg/kg ([1]; 0.5 h) [%] | responders at 30 mg/kg ([1]; 4 h) [%] | responders at 100 mg/kg ([1]; 0.5 h) [%] | responders at 100 mg/kg ([1]; 4 h) [%] | responders at 300 mg/kg ([1]; 0.5 h) [%] | responders at 300 mg/kg ([1]; 4 h) [%] | MES protection [2] | MES protection, time points after dosing [2] | responders at 30 mg/kg ([2]; 0.5 h) [%] | responders at 30 mg/kg ([2]; 4 h) [%] | responders at 100 mg/kg ([2]; 0.25 h) [%] | responders at 100 mg/kg ([2]; 0.5 h) [%] | responders at 100 mg/kg ([2]; 1 h) [%] | responders at 100 mg/kg ([2]; 4 h) [%] | responders at 300 mg/kg ([2]; 0.5 h) [%] | responders at 300 mg/kg ([2]; 4 h) [%] | TD50 (rotorod test) [mg/kg] | antiseizure activity in the 6 Hz model (6 Hz (32 mA) model) | scMET protection, time points after dosing [1] | also measured
1 | CCC(C)c1cc(C(O)C(F)(F)F)cc(Br)c1O (stereo not shown) [RM129, 2-Bromo-6-sec-Butyl-4-(2,2,2-trifluoro-1-hydroxy-ethyl)-phenol] | 4 of 4 | 0 | 0 | 0 | 0 | 0 | 0 | some protection | protected only at 0.5 h | 0 | 0 | 0 | 0 | 0 | 0 | 100 | 0 | 144.4 |  |  | ED50 (6 Hz (32 mA) model; Mus musculus): 87.6 mg/kg
2 | CC(C)c1cc(C(O)C(F)(F)F)ccc1O (stereo not shown) [RM125, 2-iso-Propyl-4-(2,2,2-trifluoro-1-hydroxy-ethyl)-phenol] | 4 of 4 | 0 | 0 | 0 | 0 | 100 | 100 | some protection | protection at both 0.5 and 4 h | 0 | 0 | 0 | 0 | 33.3 | 0 | 100 | 100 | 161.12 | relatively good antiseizure activity | protection at the highest 300 mg/kg dose at 0.5 and 4 h | ED50 (6 Hz (32 mA) model; 6 Hz (32 mA), probit analysis): 84.12 mg/kg; ED50 (6 Hz (32 mA) model; Mus musculus, 6 Hz (32 mA), probit analysis, read-out: ED50): 84 mg/kg; responders at 100 mg/kg ([2]; 2 h): 33.3%; responders at 100 mg/kg ([2]; 6 h): 0%
3 | CCCc1cc(C(O)C(F)(F)F)ccc1O (stereo not shown) [RM1208, 2-n-Propyl-4-(2,2,2-trifluoro-1-hydroxy-ethyl)-phenol] |  | 0 | 0 | 0 | 0 | 100 | 0 | some protection | protection at both 0.5 and 4 h | 0 | 0 |  | 0 |  | 0 | 100 | 100 |  | not an active compound | at 0.5 h only | responders at 30 mg/kg ([2]; 0.25 h): 0%; responders at 30 mg/kg ([2]; 1 h): 0%; responders at 30 mg/kg ([2]; 2 h): 0%; responders at 30 mg/kg ([2]; 6 h): 0%; Toxicity, animals/number of animals tested (rotorod test; dose 100 mg/kg ip, 0.25 h): 0/2; Toxicity, animals/number of animals tested (rotorod test; dose 100 mg/kg ip, 0.5 h): 0/8; Toxicity, animals/number of animals tested (rotorod test; dose 100 mg/kg ip, 1 h): 0/3; Toxicity, animals/number of animals tested (rotorod test; dose 100 mg/kg ip, 2 h): 0/3; Toxicity, animals/number of animals tested (rotorod test; dose 100 mg/kg ip, 4 h): 0/4; Toxicity, animals/number of animals tested (rotorod test; dose 100 mg/kg ip, 6 h): 0/3; Toxicity, animals/number of animals tested (rotorod test; dose 30 ip, 0.5 h): 0/4; Toxicity, animals/number of animals tested (rotorod test; dose 30 ip, 4 h): 0/2; Toxicity, animals/number of animals tested (rotorod test; dose 300 ip, 0.5 h): 3/4; Toxicity, animals/number of animals tested (rotorod test; dose 300 ip, 4 h): 0/2
